# What was measured:
# anti-CBZ mAb [1] = experiment: SAFIA (indirect competitive particle-based suspension array fluorescence immunoassay), CBZ channel; type: binding, Maus; details: for Molare Kreuzreaktivität CBZ (SAFIA): method of Abraham, anti-CBZ antibody
# Description: (§1) Indirekt kompetitiver partikelbasierter Immunoassay: Alle Immunoassays wurden in schwarzen, nicht-bindenden Mikrotiterplatten mit flachem Boden (Greiner Bio-One) durchgeführt. Zum Verdünnen der Suspension der Mikropartikel (Beads) und der biochemischen Reagenzien wurde TRIS-gepufferte Salzlösung (10 mM Tris (hydroxymethyl)aminomethan, 150mM NaCl, pH = 8,5) verwendet. Zunächst wurden 50 µL der Probe oder des Standards und 50 µl einer Mischung der primären (prim.) Antikörper anti-CAF (272 µg/L), anti-CBZ (350 µg/L), anti-DCF (20 µg/L), anti-OTA (50 ng/L), anti-ZON (250µg/L) und anti-ILA (Verdünnung des (polyklonalen) Antiserums: 1:10.000) während 5 Minuten auf einem Kreisschüttler (Titra-max 101, Heidolph) bei 750 U/min geschüttelt. Zur Kalibrierung wurde eine 8-Punkt Verdünnungsserie eines Mischstandards jedes Analyten umfassend Konzentrationen von 10.000 µg/L bis 1 ng/L verwendet, der durch serielle Verdünnung einer methanolischen Stammlösung von 1 mg/mL jedes einzelnen Analyten mit ultrareinem Wasser hergestellt worden war. Danach wurden 20 µL einer Mischung der fluoreszenzkodierten, Hapten-gekoppelten Mikropartikel (Mikropartikel) zugesetzt und für weitere 5 min geschüttelt. Um ein Messsignal der gebundenen Antikörper zu erhalten, wurden 100 µL Alexa Fluor™488 Ziege anti-mouse (und anti-Kaninchen) IgG(H+L), je 2 µg/mL Antikörper (dye 2 red-kodierte Partikel), oder Alexa Fluor™647 Ziege anti-Maus (und anti-Kaninchen) IgG(H+L), je 2 µg/ml Antikörper (dye 1 green kodierte Partikel) den Kern/Schale-Partikeln zugesetzt und für 15 min inkubiert.
# (§2) Abschließend wurden, um den Assay zu stoppen, 100 µL einer 6%-igen Formaldehyd-Lösung (aus 37% HCHO/10-15% MeOH Stammlösung, (w/w)), 2% MeOH und 0.01% SDS in PBS zugesetzt und für mindestens 10 min inkubiert. Die Mischung jedes Kavität wurde in einem BD Accuri C6 oder BD AccuriC6 plus Durchflusszytometer bei einer Flussrate von 66 µL/min während 30 s analysiert, wobei ein Schwellwert von 80.000 a.u. am FSC Detektor und ein Probeninjektionsport (SIP)- Reinigungszyklus zwischen den einzelnen Durchläufen eingeschoben wurde, um ein Verschleppen (Übertrag) zu verhindern. Standards und Proben wurden zufällig über die Mikrotiterplatte verteilt angeordnet, um einen Einfluss von Signaldrift und Randeffekte möglichst auszuschließen. Zum Testen der Bindungs-Selektivität wurde jeder Antikörper separat mit jedem haptenmodifizierten (d.h. Haptengekoppeltem) Set der verwendeten Kern/Schale-Mikropartikel inkubiert. Die hier als Fixierlösung verwendete Lösung umfasst bevorzugt Formaldehyd im Konzentrationsbereich 1-10 % vol/vol), Methanol (1-10 % vol/vol) und Natriumdodecylsulfat (0,001-10 % m/m). Statt Formaldehyd können auch andere Aldehyde mit quervernetzenden Eigenschaften (z.B. Glyoxal, Glutarladehyd, Malondialdehyd, Dipalaldehyd) eingesetzt werden. Statt Natriumdodecylsulfat können andere Detergenzien (z.B. Tween20, TitronX, Genapol, CTAB) verwendet werden.
# (§3) Datenbehandlung: Alle zytometrischen Daten wurden zunächst nach Streuwerten gegated (FSC/SSC (gate "size": vgl. Fig. 2E) um Partikelaggregate von der Berechnung auszuschließen. Danach wurden vier Gates am FSC/FL-4 (dye 2 red kodierte Partikel, Fig. 2F) oder FSC/FL-1 (dye 1 green kodierte Partikel) verwendet, um die Partikel zu dekodieren und die Analyt-bezogene mittlere Fuoreszenzintensität zu berechnen (vgl. Fig. 2G). Mittelwerte und Standardabweichungen von Wiederholungsmessungen wurden gegen die Konzentration der entsprechenden Analyte auf einer logarithmischen Skale abgetragen. Die von Rodbard eingeführte (Rodbard, D. Biometrics 1975, 31, 599-600) Vier-Parameter-Eichkurve wurde nach der Methode der kleinsten Fehlerquadrate mittels Origin® ver. 9 Grafik-Software gefittet. Ausreißer wurden mittels Grubbs Test bei einem SignifikanzNiveau α = 0,05 identifiziert und eliminiert. Welch's t-Test wurde mit einem Signifikanzniveau von α = 0,05 unter Zuhilfenahme von Origin® 9 verwendet. […]
# [2] = test system: anti-CAF Antikörper (mAb); experiment: SAFIA (indirect competitive particle-based suspension array fluorescence immunoassay), CAF channel; type: binding, Maus; details: for Molare Kreuzreaktivität CAF (SAFIA): method of Abraham, anti-CAF antibody
# Description: as §1, §2, §3
# anti-DCF mAb [3] = experiment: SAFIA (indirect competitive particle-based suspension array fluorescence immunoassay), DCF channel; type: binding, Maus; details: for Molare Kreuzreaktivität DCF (SAFIA): method of Abraham, anti-DCF antibody
# Description: as §1, §2, §3
# anti-ILA Antiserum [4] = experiment: SAFIA (indirect competitive particle-based suspension array fluorescence immunoassay), ILA channel; type: binding, Kaninchen; details: for Molare Kreuzreaktivität ILA (SAFIA): method of Abraham, anti-ILA antiserum
# Description: as §1, §2, §3
# anti-CBZ mAb [5] = details: anti-CBZ antibody; cited from earlier work
# anti-ILA Antiserum [6] = details: cited from earlier work
# [7] = test system: anti-CAF Antikörper (mAb); details: anti-CAF antibody; cited from earlier work
# anti-DCF mAb [8] = details: anti-DCF antibody; cited from earlier work
# [9] = calibration curve, dye 2 red coded particles, Alexa Fluor™488 secondary antibody
Compound,"IC50 ""Dye 2 Red"" (anti-CBZ mAb [1]; [9])",Molare Kreuzreaktivität CBZ (SAFIA) (anti-CBZ mAb [1]),Molare Kreuzreaktivität CAF (SAFIA) [2],Molare Kreuzreaktivität DCF (SAFIA) (anti-DCF mAb [3]),Molare Kreuzreaktivität ILA (SAFIA) (anti-ILA Antiserum [4]),Molare Kreuzreaktivität CBZ (ELISA) (anti-CBZ mAb [5]),"Molare Kreuzreaktivität CBZ (SAFIA) (anti-CBZ mAb [1]; listed as Carbamazepin-10,1-L-epoxid) [%]",Molare Kreuzreaktivität ILA (ELISA) (anti-ILA Antiserum [6]),"IC50 ""Dye 2 Red"" [2, 9]",Molare Kreuzreaktivität CAF (ELISA) [7],"IC50 ""Dye 2 Red"" (anti-ILA Antiserum [4]; [9])","IC50 ""Dye 2 Red"" (anti-DCF mAb [3]; [9])",Molare Kreuzreaktivität DCF (ELISA) (anti-DCF mAb [8]) [%]
"NC(=O)N1c2ccccc2C=Cc2ccccc21 [CBZ, Carbamazepin]","1,13 ± 0,07 µg/L",100%,"<0,1%","<0,1%","< 0,1%",100%,–,–,–,–,–,–,–
"NC(=O)N1c2ccccc2C2OC2c2ccccc21 (centres unmarked) [10,11-Epoxycarbamazepin]",–,117%,"<0,1%","<0,1%","< 0,1%",140%,118,–,–,–,–,–,–
"NC(=O)N1c2ccccc2C(O)C(O)c2ccccc21 (centres unmarked) [10,11-Dihydroxy-carbamazepin]",–,"0,3%","<0,1%","< 0,1%",–,"0,1%",–,–,–,–,–,–,–
C[C@H](CCC(=O)NCCS(=O)(=O)O)[C@H]1CC[C@H]2[C@@H]3CC[C@@H]4C[C@H](O)CC[C@]4(C)[C@H]3CC[C@]12C [Taurolithocholsäure],–,"<0,1%","<0,1%","<0,1%","<0,1%",–,–,"1,2%",–,–,–,–,–
"Cn1c(=O)c2c(ncn2C)n(C)c1=O [CAF, Coffein]",–,"<0,1%",100%,"<0,1%","< 0,1%",–,–,–,"1,72 ± 0,16 µg/L",100%,–,–,–
"C[C@H](CCC(=O)O)[C@H]1CC[C@H]2[C@@H]3CC[C@@H]4C[C@@H](O)CC[C@]4(C)[C@H]3CC[C@]12C [ILA, Isolithocholsäure]",–,"<0,1%","<0,1%","<0,1%",100%,–,–,100%,–,–,"1,39 ± 0,72 µg/L",–,–
Cn1cnc2c1c(=O)[nH]c(=O)n2C [Theobromin],–,"<0,1%","2,0%","<0,1%","<0,1%",–,–,–,–,"0,13%",–,–,–
Cn1c(=O)c2[nH]cnc2n(C)c1=O [Theophyllin],–,"<0,1%","5,8%","<0,1%","<0,1%",–,–,–,–,"12,0%",–,–,–
"O=C(O)Cc1ccccc1Nc1c(Cl)cccc1Cl [DCF, Diclofenac]",–,"<0,1%","<0,1%",100%,"< 0,1%",–,–,–,–,–,–,"0,05 ± 0,02 µg/L",100
O=C(O)Cc1ccccc1Nc1c(Cl)cc(O)cc1Cl [4'-Hydroxydiclofenac],–,"<0,1%","<0,1%","<0,1%","<0,1%",–,–,–,–,–,–,–,11
O=C(O)COC(=O)Cc1ccccc1Nc1c(Cl)cccc1Cl [Aceclofenac],–,"<0,1%","<0,1%","16,6%","<0,1%",–,–,–,–,–,–,–,–
NC(=O)N1c2ccccc2C=Cc2ccc(O)cc21 [3-Hydroxycarbamazepin],–,"20,2%","<0,1%","<0,1%","< 0,1%","5,1%",–,–,–,–,–,–,–
Cn1c(=O)[nH]c2ncn(C)c2c1=O [Paraxanthin],–,"<0,1%","<0,1%","<0,1%","<0,1%",–,–,–,–,"<0,1%",–,–,–
C[C@H](CCC(=O)O)[C@H]1CC[C@H]2[C@@H]3[C@H](O)C[C@@H]4C[C@H](O)CC[C@]4(C)[C@H]3C[C@H](O)[C@]12C [Cholsäure],–,"<0,1%","<0,1%","<0,1%","<0,1%",–,–,"<0,1%",–,–,–,–,–
C[C@H](CCC(=O)O)[C@H]1CC[C@H]2[C@@H]3CC[C@@H]4C[C@H](O)CC[C@]4(C)[C@H]3CC[C@]12C [Lithocholsäure],–,"<0,1%","<0,1%","<0,1%","1,9%",–,–,"0,3%",–,–,–,–,–
O=C(O)Cc1cc(O)ccc1Nc1c(Cl)cccc1Cl [5'-Hydroxydiclofenac],–,"<0,1%","<0,1%","9,8%","<0,1%",–,–,–,–,–,–,–,13
